Where a chain is given by its changes, count along the chain named. *1 amine or outer side, *2 acyl side, *3 side chain or, on linkers, in order; H or OH if unused. Where a SMILES comes first, the peptide text is derived from it. Bridges are numbered along the chain shown (N, C = ends). Side-chain parts run from the residue outwards. [ ]: non-standard residue; d: D form. The star is where a group is joined. Trp(2-yl) = O=C([C@H](Cc1c([*:3])[nH]c2ccccc12)N[*:1])[*:2]; X1 = CN(CC(=O)O)c1nc(CC[*:1])cc(CC[*:2])n1; Dap(N3) = [N-]=[N+]=NC[C@H](N)C(=O)O; mXylylene = c1cc(C[*:1])cc(C[*:2])c1; CH2COCH2 = O=C(C[*:1])C[*:2]; Lauroyl = CCCCCCCCCCCC(=O)*; hCys = N[C@@H](CCS)C(=O)O; AEEA = NCCOCCOCC(=O)O; CH2 = C([*:1])[*:2]

Test system in the first data set: not listed separately
The experiment in a line: MTT cell viability assay in HeLa cells. It is filed as cell-based. The following applies: human; HeLa cells, 48 h, 50 μM compound; ±standard deviation; read-out: Cell viability (%) 50 μM compound. The protocol: HeLa cells were maintained in 5% CO2 in DMEM supplemented with 10% FBS, 2 mM L-glutamine, 100 U/mL penicillin and […] streptomycin, in an atmosphere containing 5% CO2.
Cells were regularly passed and used for experiments within one month after thawing (10-15 […]
1.6.2 Cell viability assay
Cell viability was assayed by 3-(4,5-dimethylthiazol-2-yl)-2,5-diphenyltetrazolium bromide (MTT) colorimetric assay. HeLa cells were plated on 96-well plates (20,000 cells per well in 100 μL). After 24 h, cells were treated with different concentrations of test compounds or vehicle alone (DMSO). One hour before the end of the incubations, 10 μL of MTT solution (5 mg/mL in PBS) were added to each well. Formazan crystals (proportional to the number of viable cells) were then dissolved by the addition of 20 μL/well of a pH 4.7 solution containing 20% (w:v) SDS, 50% (v:v) N,N-dimethylformamide, 2% (v:v) acetic acid, and 25 mM HCl, and quantified by recording the absorbance at 570 nm using an Infinite M200 PRO plate reader (TECAN, Life Sciences). […]
(Tetrazolium assays rely on reduction of a dye to a coloured formazan, in cell work by metabolically active cells.)
Usually viability stands for a read-out of living cells in per cent, often relative to untreated cells. Turning to `O=C(O)c1ccc2c(c1)nc(Nc1cccc(Cl)c1)c1ccncc12` [CX-4945, reference compound], the viability at 48 h, 50 µM is 29 ± 1%.

The data set is the same for the next values; noted with them: human; HeLa cells, 48 h, 100 μM compound; ±standard deviation; read-out: Cell viability (%) 100 μM compound.
`O=C(O)c1ccc2c(c1)nc(Nc1cccc(Cl)c1)c1ccncc12` [CX-4945, reference compound]: the viability at 48 h, 100 µM was found to be 21 ± 1%.

The next data set addresses T1, CK2α (Homo sapiens, UniProt P68400, K74A/K75A/K76A/R21S).
T1 construct: CK2α_KA (residues 2-329) contained four mutations; made in house
T1 sequence (P68400 2-329 R21S/K74A/K75A/K76A): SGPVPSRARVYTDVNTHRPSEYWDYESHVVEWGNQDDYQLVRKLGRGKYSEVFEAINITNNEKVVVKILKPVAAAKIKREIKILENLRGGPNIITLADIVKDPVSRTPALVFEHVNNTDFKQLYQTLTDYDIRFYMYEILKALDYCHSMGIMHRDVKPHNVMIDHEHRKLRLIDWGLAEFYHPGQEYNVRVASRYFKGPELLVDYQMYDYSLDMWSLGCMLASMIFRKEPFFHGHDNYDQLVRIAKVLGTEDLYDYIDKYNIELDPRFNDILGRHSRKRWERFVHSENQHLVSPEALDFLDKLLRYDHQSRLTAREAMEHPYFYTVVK
The data set can be described thus: Isothermal titration calorimetry (ITC) binding to CK2α. Conditions: 25 °C, CK2α_KA. An excerpt: Ligand efficiency (LE) is a commonly used statistic to evaluate and compare the effectiveness of drug candidates.17 Mathematically, it is related to the IC50 of the molecule, as well as the number of heavy atoms (non-hydrogen) it contains, as detailed in Equation 1. 18
Equation 1 Mathematical expression for the ligand efficiencies of compounds.18 pIC50 = -log10(IC50) LE = Number of non ‒ H atoms […]
greatest activity with the fewest heavy atoms.
(§1) 1.5 Biophysical experiments
(§2) 1.5.1 Protein expression and purification
Three constructs of CK2α were used in this study. For FP assays, CK2α_WT was used (residues 2-329).
For ITC CK2α_KA construct was used whilst CK2α_FP10 was used for crystallisation purposes. CK2α_KA (residues 2-329) contained four mutations designed to aid crystallisation and solubility by reducing the overall charge of the protein; R21S, K74A, K75A and K76A. CK2α_FP 10 contained one mutation (R21S) and an N-terminal extension […] aimed at mimicking a substrate peptide for CK2α. These constructs were cloned, expressed, and purified as previously described.19 1.5.2 Fluorescence polarisation
(§3) IC50’s were determined using a PHERAstar FS plate reader (BMG labtech). The fluorescein probe was measured using 485 nm excitation and 530 nm emission. The fluorescein probe was covalently linked to the N-terminus of the linear CK2β-based peptide RLYGFKIHPMAYQLQ. IC50’s were measured using 500, 167, 16.7, 8.33 and 0 μM of the test peptide at a constant concentration of DMSO. P7C8, P8C9, P+L and P+ were tested at concentrations of 50.0, 16.7, 1.67, 0.833 and 0 μM due to their higher potencies. The experiments were performed in a Corning 384-well plate with final concentrations of 571 nM CK2α_WT (residues 2-329), 7.4 μM fluorescent peptide (fluorescein probe was covalently linked to the N-terminus of the linear CK2β-based peptide RLYGFKIHPMAYQLQ), 200 mM NaCl, 40mM TRIS, 20 mM MgCl2 and pH 7.5. The plates were read after a 45 min incubation period.
1.5.3 Isothermal titration calorimetry
All ITC experiments were performed at 25 °C using a MicroCal ITC-200 (GE Healthcare). […]
The term Kd denotes the concentration at which binding is half-saturated. `CC(=O)NCCOCCOCC(=O)NCCCC[C@@H]1NC(=O)[C@H](Cc2ccccc2)NC(=O)CNC(=O)[C@H](Cc2ccc(O)cc2)NC(=O)[C@H](CC(C)C)NC(=O)[C@H](CCCNC(=N)N)NC(=O)[C@@H](NC(C)=O)CCSc2[nH]c3ccccc3c2C[C@@H](C(N)=O)NC1=O` [P8C9[PEG]] (Ac-[hCys]RLYGFK([AEEA-Ac])[Trp(2-yl)]-NH2; thioether 1-8 (inferred)) returned a Kd of 1.6 µM.

With `CCCCCCCCCCCC(=O)NCCOCCOCC(=O)N[C@H]1CCSc2[nH]c3ccccc3c2C[C@@H](C(N)=O)NC(=O)[C@H](CCCCN)NC(=O)[C@H](Cc2ccccc2)NC(=O)CNC(=O)[C@H](Cc2ccc(O)cc2)NC(=O)[C@H](CC(C)C)NC(=O)[C@H](CCCNC(=N)N)NC1=O` [FA-P8C9] ({Lauroyl-AEEA}-[hCys]RLYGFK[Trp(2-yl)]-NH2; thioether 1-8), the Kd was found to be 1.3 µM. The Kd values of the last two compounds are within 1.5-fold of each other.

Test system in another data set: not listed separately
The experiment in a line: Solubility observations during FP and ITC testing. It is filed as physicochemical. The following applies: observed during FP or ITC testing.
`CC(=O)N[C@H]1CSCSC[C@@H](C(N)=O)NC(=O)[C@H](CCCCN)NC(=O)[C@H](Cc2ccccc2)NC(=O)CNC(=O)[C@H](Cc2ccc(O)cc2)NC(=O)[C@H](CC(C)C)NC(=O)[C@H](CCCNC(=N)N)NC1=O` [Peptide P5C6] (Ac-CRLYGFKC-NH2; linker 1-8 via CH2): the “Solubility (observation in words)” value is recorded as “poor solubility”.

The next data set deals with T2, CK2α (Homo sapiens, UniProt P68400).
T2 construct: 571 nM CK2α_WT (residues 2-329); made in house
T2 sequence (P68400 2-329): T1 sequence (P68400 2-329 R21S/K74A/K75A/K76A) with S20R, A73K, A74K, A75K
The experiment in a line: Fluorescence polarisation (FP) assay: displacement of a CK2β-like fluorescent probe from CK2α. The following applies: CK2α_WT (residues 2-329), fluorescein-labelled CK2β-based peptide probe, ±SEM. It is filed as binding.
Description: To assess the ability of the synthesised linear peptides to displace a CK2β-like fluorescent probe from CK2α, a fluorescence polarisation (FP) assay was used (Table 1, ESI 1.3.2 and Fig. S2, ESI ^†). […]
as §1, §2
Three constructs of CK2α were used in this study. For FP assays, CK2α_WT was used (residues 2-329). […]
These constructs were cloned, expressed, and purified as previously described.19 1.5.2 Fluorescence polarisation
as §3, with “period. […]” for “period.”
Background: In fluorescence polarisation assays a small probe gives low polarisation when free and higher when bound to something large.
Usually IC50 stands for the point on the concentration scale where inhibition reaches its midpoint. A lower IC50 goes with greater potency. The compound Ac-LYGFKW-NH2 [Peptide P2, LYGFKW] registered a half-inhibitory concentration (IC50) of 137 ± 25.8 µM.

In the case of Ac-RLYGFKW-NH2 [Peptide P3, RLYGFKW], the IC50 was 22.5 ± 2.4 µM.

For the compound `CC(=O)NCC(=O)N[C@H]1Cn2cc(nn2)-c2cc(C(=O)O)cc(c2)-c2cn(nn2)C[C@@H](C(=O)NCC(=O)NCC(N)=O)NC(=O)[C@H](Cc2c[nH]cn2)NC(=O)[C@H](Cc2c[nH]c3ccccc23)NC(=O)[C@H](CCCCN)NC(=O)[C@H](Cc2ccccc2)NC(=O)CNC(=O)[C@H](Cc2ccc(O)cc2)NC(=O)[C@H](CC(C)C)NC(=O)[C@H](CCCNC(=N)N)NC1=O` [P+, GXC1RLYGFKWHXC1GG, reference compound], the IC50 worked out at 8.7 ± 4.2 µM. Compared with the last compound, the IC50 is about 2.6-fold lower.

Turning to `CC(=O)NCC(=O)N[C@@H](CN=[N+]=[N-])C(=O)N[C@@H](CCCNC(=N)N)C(=O)N[C@@H](CC(C)C)C(=O)N[C@@H](Cc1ccc(O)cc1)C(=O)NCC(=O)N[C@@H](Cc1ccccc1)C(=O)N[C@@H](CCCCN)C(=O)N[C@@H](Cc1c[nH]c2ccccc12)C(=O)N[C@@H](Cc1c[nH]cn1)C(=O)N[C@@H](CN=[N+]=[N-])C(=O)NCC(=O)NCC(N)=O` [P+L, reference compound] (Ac-G[Dap(N3)]RLYGFKWH[Dap(N3)]GG-NH2), the IC50 is 11.7 µM.

Turning to Ac-RLYGFKWH-NH2 [Peptide P4, RLYGFKWH], the IC50 worked out at 16.7 ± 2.3 µM.

As for `CC(=O)N[C@H]1CSCC(=O)CSC[C@@H](C(N)=O)NC(=O)[C@H](CCCCN)NC(=O)[C@H](Cc2ccccc2)NC(=O)CNC(=O)[C@H](Cc2ccc(O)cc2)NC(=O)[C@H](CC(C)C)NC(=O)[C@H](CCCNC(=N)N)NC1=O` [Peptide P5C4] (Ac-CRLYGFKC-NH2; linker 1-8 via CH2COCH2), the IC50 came out at 54.6 ± 11.2 µM.

`CC(=O)N[C@H]1CSc2[nH]c3ccccc3c2C[C@@H](C(N)=O)NC(=O)[C@H](CCCCN)NC(=O)[C@H](Cc2ccccc2)NC(=O)CNC(=O)[C@H](Cc2ccc(O)cc2)NC(=O)[C@H](CC(C)C)NC(=O)[C@H](CCCNC(=N)N)NC1=O` [Peptide P7C8, CC8RLYGFKWC8] (Ac-CRLYGFK[Trp(2-yl)]-NH2; thioether 1-8) came in with an IC50 of 15.6 ± 5.1 µM. Compared with the last compound, the IC50 is about 3.5-fold lower.

As for Ac-RLYGFK-NH2 [Peptide P1, RLYGFK], the IC50 was > 500 µM.

`CC(=O)N[C@H]1CSCCc2cc(nc(N(C)CC(=O)O)n2)CCSC[C@@H](C(N)=O)NC(=O)[C@H](CCCCN)NC(=O)[C@H](Cc2ccccc2)NC(=O)CNC(=O)[C@H](Cc2ccc(O)cc2)NC(=O)[C@H](CC(C)C)NC(=O)[C@H](CCCNC(=N)N)NC1=O` [Peptide P5C7] (Ac-CRLYGFKC-NH2; linker 1-8 via X1) showed an IC50 of 40 ± 4.7 µM.

In the case of `CC(=O)N[C@H]1CSCc2cccc(c2)CSC[C@@H](C(N)=O)NC(=O)[C@H](CCCCN)NC(=O)[C@H](Cc2ccccc2)NC(=O)CNC(=O)[C@H](Cc2ccc(O)cc2)NC(=O)[C@H](CC(C)C)NC(=O)[C@H](CCCNC(=N)N)NC1=O` [Peptide P5C5] (Ac-CRLYGFKC-NH2; linker 1-8 via mXylylene), the IC50 came to 28.9 ± 1.9 µM.
